Measured values taken from patent US20230125964A1, “Methods for high throughput cryopreservation of cell clusters” (Regents of the University of Minnesota, priority 2021, published 2023).

Experiments:
[1] = cited from earlier work
[2] = test system: SC-beta islets; details: individual components and mixtures at same total concentration (44%), FIG. 3C
Experimental: The full-strength CPA used was 22 wt % EG+22 wt % DMSO prepared in RPMI medium. To load the CPA, islets were first incubated in 20% CPA (i.e., 4.4 wt % EG+4.4 wt % DMSO) for 10 min at 21° C., followed by 50% CPA for 10 min at 4° C. and in 100% CPA for 10 min at 4° C. The islets suspension was then transferred to the cryomesh placed on a wicking material (i.e., paper towel). The CPA cocktail was wicked away through the nylon mesh and islets remained on the cryomesh. Clumping of islets was avoided. The cryomesh was quickly plunged into liquid nitrogen and stored in a liquid nitrogen tank. […]
Quantitative viability was measured on dissociated islet cells. […] After 15 seconds of incubation, 10 μL of the suspension was pipetted onto the Countess Cell Counting Chamber Slides (Thermo Fischer Scientific; Cat #C10228), and viability was quantified using a Countess II FL cell counter (Invitrogen by Thermo Fisher Scientific; Cat #AMQAF1000).
To optimize the CPA formulation, three overall CPA concentrations (33%, 44%, and 54%) were tested consisting of PG, EG, DMSO, or mixtures thereof. Qualitative and quantitative live/dead staining was used to measure SC-beta islet viability for each CPA after loading and unloading (FIG. 2F) and after VR. Qualitative measurements were determined by confocal imaging of intact islets after staining with acridine orange (AO) and propidium iodide (PI). […]

| SMILES | Transport: share achieving normoglycemia ([1]; canine islets to mice) | Transport: time to normoglycemia ([1]; literature studies) | islet toxicity after CPA loading and unloading [2] |
| --- | --- | --- | --- |
| C[S+](C)[O-] [DMSO, dimethyl sulfoxide] | 62% | in 4 days | – |
| OCCO [EG, ethylene glycol] | – | – | least islet toxicity of the three individual components |
